Laboratory results from patent EP1143981B1, “USE OF N-GLYCOLNEURAMINIC ACID AND ITS DERIVATIVES FOR THE MANUFACTURE OF A MEDICAMENT FOR THE TREATMENT OF HIV INFECTIONS” (Glukor, Inc., priority 1998, dated 2000).

Assays:
PBMCs = type: cell-based; details: human
Protocol: Fresh human PBMCs were isolated from voluntary Red Cross donors, seronegative for HIV and HBV. Leukophoresed blood was diluted 1:1 with Dulbecco's PBS, layered over 14 mL of Ficoll-Hypaque density gradient in a 50mL centrifuge and then centrifuged for 30 minutes at 600 x g. Banded PBMCs were gently aspirated from the resulting interface and subsequently washed twice with PBS by low speed centrifugation. […] PBMCs were maintained in this medium at a concentration of 1-2 x 10^6 cells/mL with bi-weekly medium changes until used in the assay. […]
Tetrazolium dye staining of screening plates: After 6 days of incubation (37°C with 5% CO2), the test plates were analyzed by staining with the tetrazolium dye XTT (2,3-b (2-methoxy-4-nitro-5-sulfophenyl)-2H-tetrazolium -5-carboxanilide). XTT-tetrazolium is metabolized by mitochondrial enzymes of metabolically active cells to a soluble formazan product, allowing the rapid quantitative analysis of the inhibition of HIV-induced cell killing by anti-HIV compounds. […] Plates were sealed with adhesive plate sealers and inverted several times to mix the soluble formazan product and the plate was read spectrophotometrically at 450nm with a Molecular Devices Vmax plate reader. Indices such as %CPE Reduction (cytopathic effects), %Cell Viability, IC25, IC50, IC95, TC25, TC50, and TC95 and other indices were calculated. […]

HIV-1RF = test: CEM-SS cell-based anti-HIV assay (XTT); details: 3.2µM to 1 mM; CEM-SS cells
Protocol: Cell Preparation: Prior to infection, CEM-SS cells were grown in complete tissue culture medium (RPMI 1640 medium with 10% heat-inactivated fetal bovine serum, 2mM L-glutamine, 100 U/mL penicillin, 100 µg/mL streptomycin, 10 µg/mL gentamycin) and transferred to T-150 flasks. On the day preceding the assay, the cells were split 1:2 to assure the cells would be in an exponential growth phase at time of infection. On the day of assay, the cells were washed twice with tissue culture medium and resuspended in fresh tissue culture medium. Total cell and viability counting were performed using a hemacytometer and trypan blue dye exclusion. Cell viability was greater than 95% for the cells to be utilized in the assay. […]
Virus Preparation: Pre-tittered aliquots of HIV-1ROJO and HIV-1RF were removed from the freezer (-80°C) and thawed to room temperature in a biological safety cabinet. The virus was resuspended and diluted into tissue culture medium such that the amount of virus added to each well in a volume of 50 µL will be the amount determined to give complete cell killing at 6 days post-infection.
Tetrazolium dye staining of screening plates: After 6 days of incubation (37°C with 5% CO2), the test plates were analyzed by staining with the tetrazolium dye XTT (2,3-b (2-methoxy-4-nitro-5-sulfophenyl)-2H-tetrazolium -5-carboxanilide). […]

X4 strain LAI/IIIB = test: RT activity in infected PBMCs over 20 days post-infection; type: cell-based
Protocol: Reverse Transcriptase Activity Assay: A microtiter based reverse transcriptase (RT) reaction was utilized as described by Buckheit et al., (1991), AIDS Research and Human Retroviruses, 7:295-302. Tritiated thymidine triphosphate (^3H-TTP) was suspended in distilled H2O at 5 Ci/mL. Poly rA and oligo dT were prepared as a stock solution which was kept at -20°C. RT reaction buffer was prepared fresh on a daily basis and contained 125 µL 1M EGTA, 125 µL dH2O, 110 µL 10% SDS, 50 µL 1M Tris (pH 7.4), 50 µL 1M DTT, and 40 µL 1M MgCl2. These three solutions were mixed together in a ratio of 2 parts ^3H-TTP, 1 part poly rA:oligo dT, and 1 part reaction buffer. Ten microliters of this reaction mixture were placed in a round bottom microtiter plate and 15 µL of virus containing supernatant were added and mixed. The plate was incubated at 37°C in a water bath with a solid support to prevent submersion of the plate and incubated for 60 minutes. After the incubation period, the reaction volume was spotted onto pieces of DE81 paper, washed 5 times for 5 minutes each in a 5% sodium phosphate buffer, 2 times for 1 minute each in distilled water, 2 times for 1 minute each in 70% ethanol, and then dried. Opti-Fluor-O (Packard) was added to each sample and incorporated radioactivity was quantified utilizing a Wallac 1450 MicroBeta Plus liquid scintillation counter. Plates were screened with tetrazolium dye staining as described above.
PBMCs were treated with dilutions of LUKOR of 1:4, 1:20, 1:100, 1:500, or 1:2500, or concentrations ofN-glycolylneuraminic acid or N-acetylneuraminic acid of 0.4, 1.2, 3.6, 11, or 33µg/ml. No carbohydrates were added to the control sample. RT activity was determined at 3, 6, 9,13, 17, and 20 days post-infection (PI) with X4 strain LAI/IIIB.

## O=C(CO)N[C@H]1[C@H]([C@H](O)[C@H](O)CO)OC(O)(C(=O)O)C[C@@H]1O (stereo partly drawn) [N-glycolylneuraminic acid]
PBMCs
  CC50: > 1000 µM
HIV-1RF
  anti-HIV activity: did not display anti-HIV activity
X4 strain LAI/IIIB; 0.4 µg/ml, 3 days PI
  RT Activity: 53
X4 strain LAI/IIIB; 0.4 µg/ml, 6 days PI
  RT Activity: 113
X4 strain LAI/IIIB; 0.4 µg/ml, 9 days PI
  RT Activity: 1342
X4 strain LAI/IIIB; 0.4 µg/ml, 13 days PI
  RT Activity: 1371
X4 strain LAI/IIIB; 0.4 µg/ml, 17 days PI
  RT Activity: 1509
X4 strain LAI/IIIB; 0.4 µg/ml, 20 days PI
  RT Activity: 1250
X4 strain LAI/IIIB; 3.6 µg/ml, 3 days PI
  RT Activity: 45
X4 strain LAI/IIIB; 3.6 µg/ml, 6 days PI
  RT Activity: 44
X4 strain LAI/IIIB; 3.6 µg/ml, 9 days PI
  RT Activity: 139
X4 strain LAI/IIIB; 3.6 µg/ml, 13 days PI
  RT Activity: 428
X4 strain LAI/IIIB; 3.6 µg/ml, 17 days PI
  RT Activity: 1262
X4 strain LAI/IIIB; 3.6 µg/ml, 20 days PI
  RT Activity: 616
X4 strain LAI/IIIB; 11 µg/ml, 3 days PI
  RT Activity: 40
X4 strain LAI/IIIB; 11 µg/ml, 6 days PI
  RT Activity: 75
X4 strain LAI/IIIB; 11 µg/ml, 9 days PI
  RT Activity: 956
X4 strain LAI/IIIB; 11 µg/ml, 13 days PI
  RT Activity: 2544
X4 strain LAI/IIIB; 11 µg/ml, 17 days PI
  RT Activity: 3261
X4 strain LAI/IIIB; 11 µg/ml, 20 days PI
  RT Activity: 1411
X4 strain LAI/IIIB; 33 µg/ml, 3 days PI
  RT Activity: 32
X4 strain LAI/IIIB; 33 µg/ml, 6 days PI
  RT Activity: 75
X4 strain LAI/IIIB; 33 µg/ml, 9 days PI
  RT Activity: 567
X4 strain LAI/IIIB; 33 µg/ml, 13 days PI
  RT Activity: 1103
X4 strain LAI/IIIB; 33 µg/ml, 17 days PI
  RT Activity: 2356
X4 strain LAI/IIIB; 33 µg/ml, 20 days PI
  RT Activity: 2917
X4 strain LAI/IIIB; all dilutions/concentrations, 3-20 days PI
  RT activity in treated cells (summary in words): RT activity was decreased
